Results reported in ChEMBL document CHEMBL4507293 (2021).

Assays:
[1] = target: Serine/threonine-protein kinase STK11 (Homo sapiens) (UniProt Q15831); settings: Compound concentration 100.0 nM
[2] = target: cGMP-dependent protein kinase 2 (Homo sapiens) (UniProt Q13237); settings: Compound concentration 100.0 nM
[3] = target: Receptor-type tyrosine-protein kinase FLT3 (Homo sapiens) (UniProt P36888); settings: Compound concentration 100.0 nM
[4] = target: Mitogen-activated protein kinase 15 (Homo sapiens) (UniProt Q8TD08); settings: Compound concentration 100.0 nM
[5] = target: Serine/threonine-protein kinase RIO2 (Homo sapiens) (UniProt Q9BVS4); settings: Compound concentration 100.0 nM
[6] = target: D(1B) dopamine receptor (Homo sapiens) (UniProt P21918); settings: Compound concentration 10.0 uM
[7] = target: Cyclin-dependent kinase 3 (Homo sapiens) (UniProt Q00526); settings: Compound concentration 100.0 nM
[8] = target: Mitogen-activated protein kinase kinase kinase 3 (Homo sapiens) (UniProt Q99759); settings: Compound concentration 100.0 nM
[9] = system: Epidermal growth factor receptor (Homo sapiens), P00533 [L858R,T790M]; settings: Compound concentration 100.0 nM
[10] = target: Ephrin type-A receptor 6 (Homo sapiens) (UniProt Q9UF33); settings: Compound concentration 100.0 nM
[11] = target: Fibroblast growth factor receptor 2 (Homo sapiens) (UniProt P21802); settings: Compound concentration 100.0 nM
[12] = target: Cyclin-dependent kinase 13 (Homo sapiens) (UniProt Q14004); settings: Compound concentration 100.0 nM
[13] = target: Serine/threonine-protein kinase 26 (Homo sapiens) (UniProt Q9P289); settings: Compound concentration 100.0 nM
[14] = target: Serine/threonine-protein kinase haspin (Homo sapiens) (UniProt Q8TF76); settings: Compound concentration 100.0 nM
[15] = target: High affinity cGMP-specific 3',5'-cyclic phosphodiesterase 9A (Homo sapiens, UniProt O76083); test: Biochemical assay (PDE9A)
[16] = target: Membrane-associated tyrosine- and threonine-specific cdc2-inhibitory kinase (Homo sapiens) (UniProt Q99640); settings: Compound concentration 100.0 nM
[17] = system: Tyrosine-protein kinase ABL1 (Homo sapiens), P00519 [H396P]; settings: Compound concentration 100.0 nM
[18] = target: Dual specificity mitogen-activated protein kinase kinase 3 (Homo sapiens) (UniProt P46734); settings: Compound concentration 100.0 nM
[19] = target: Protein-tyrosine kinase 2-beta (Homo sapiens) (UniProt Q14289); settings: Compound concentration 100.0 nM
[20] = target: TGF-beta receptor type-2 (Homo sapiens) (UniProt P37173); settings: Compound concentration 100.0 nM
[21] = target: Serine/threonine-protein kinase NIM1 (Homo sapiens) (UniProt Q8IY84); settings: Compound concentration 100.0 nM
[22] = target: Beta-1 adrenergic receptor (Homo sapiens) (UniProt P08588); settings: Compound concentration 10.0 uM
[23] = target: Phosphatidylinositol 4-phosphate 5-kinase type-1 alpha (Homo sapiens) (UniProt Q99755); settings: Compound concentration 100.0 nM
[24] = target: Cyclin-dependent kinase 2 homolog (Plasmodium falciparum (isolate 3D7)) (UniProt P61075); settings: Compound concentration 100.0 nM
[25] = target: Dual specificity mitogen-activated protein kinase kinase 1 (Homo sapiens) (UniProt Q02750); settings: Compound concentration 100.0 nM
[26] = target: Mitogen-activated protein kinase 3 (Homo sapiens) (UniProt P27361); settings: Compound concentration 100.0 nM
[27] = target: 5-hydroxytryptamine receptor 1D (Homo sapiens) (UniProt P28221); settings: Compound concentration 10.0 uM
[28] = target: Serine/threonine-protein kinase MRCK gamma (Homo sapiens) (UniProt Q6DT37); settings: Compound concentration 100.0 nM
[29] = target: Dual specificity protein kinase CLK2 (Homo sapiens) (UniProt P49760); settings: Compound concentration 100.0 nM
[30] = target: 5'-AMP-activated protein kinase catalytic subunit alpha-2 (Homo sapiens) (UniProt P54646); settings: Compound concentration 100.0 nM
[31] = target: Serine/threonine-protein kinase D2 (Homo sapiens) (UniProt Q9BZL6); settings: Compound concentration 100.0 nM
[32] = target: Serine/threonine-protein kinase TBK1 (Homo sapiens) (UniProt Q9UHD2); settings: Compound concentration 100.0 nM
[33] = target: G protein-coupled receptor kinase 3 (Homo sapiens) (UniProt P35626); settings: Compound concentration 100.0 nM
[34] = system: Mast/stem cell growth factor receptor Kit (Homo sapiens), P10721 [V559D,V654A]; settings: Compound concentration 100.0 nM
[35] = target: RAC-beta serine/threonine-protein kinase (Homo sapiens) (UniProt P31751); settings: Compound concentration 100.0 nM
[36] = target: Tyrosine-protein kinase ABL2 (Homo sapiens) (UniProt P42684); settings: Compound concentration 100.0 nM
[37] = target: MAP kinase-activated protein kinase 2 (Homo sapiens) (UniProt P49137); settings: Compound concentration 100.0 nM
[38] = target: NUAK family SNF1-like kinase 1 (Homo sapiens) (UniProt O60285); settings: Compound concentration 100.0 nM
[39] = target: Ribosomal protein S6 kinase alpha-6 (Homo sapiens) (UniProt Q9UK32); settings: Compound concentration 100.0 nM
[40] = target: Dual specificity protein kinase TTK (Homo sapiens) (UniProt P33981); settings: Compound concentration 100.0 nM
[41] = target: Mitogen-activated protein kinase kinase kinase 20 (Homo sapiens) (UniProt Q9NYL2); settings: Compound concentration 100.0 nM
[42] = target: Tyrosine-protein kinase JAK3 (Homo sapiens) (UniProt P52333); settings: Compound concentration 100.0 nM
[43] = target: Casein kinase II subunit alpha' (Homo sapiens) (UniProt P19784); settings: Compound concentration 100.0 nM
[44] = system: ALK tyrosine kinase receptor (Homo sapiens), Q9UM73 [C1156Y]; settings: Compound concentration 100.0 nM
[45] = target: Serine/threonine-protein kinase PLK2 (Homo sapiens) (UniProt Q9NYY3); settings: Compound concentration 100.0 nM

Sequence of Serine/threonine-protein kinase haspin (Homo sapiens) (Q8TF76 whole entry): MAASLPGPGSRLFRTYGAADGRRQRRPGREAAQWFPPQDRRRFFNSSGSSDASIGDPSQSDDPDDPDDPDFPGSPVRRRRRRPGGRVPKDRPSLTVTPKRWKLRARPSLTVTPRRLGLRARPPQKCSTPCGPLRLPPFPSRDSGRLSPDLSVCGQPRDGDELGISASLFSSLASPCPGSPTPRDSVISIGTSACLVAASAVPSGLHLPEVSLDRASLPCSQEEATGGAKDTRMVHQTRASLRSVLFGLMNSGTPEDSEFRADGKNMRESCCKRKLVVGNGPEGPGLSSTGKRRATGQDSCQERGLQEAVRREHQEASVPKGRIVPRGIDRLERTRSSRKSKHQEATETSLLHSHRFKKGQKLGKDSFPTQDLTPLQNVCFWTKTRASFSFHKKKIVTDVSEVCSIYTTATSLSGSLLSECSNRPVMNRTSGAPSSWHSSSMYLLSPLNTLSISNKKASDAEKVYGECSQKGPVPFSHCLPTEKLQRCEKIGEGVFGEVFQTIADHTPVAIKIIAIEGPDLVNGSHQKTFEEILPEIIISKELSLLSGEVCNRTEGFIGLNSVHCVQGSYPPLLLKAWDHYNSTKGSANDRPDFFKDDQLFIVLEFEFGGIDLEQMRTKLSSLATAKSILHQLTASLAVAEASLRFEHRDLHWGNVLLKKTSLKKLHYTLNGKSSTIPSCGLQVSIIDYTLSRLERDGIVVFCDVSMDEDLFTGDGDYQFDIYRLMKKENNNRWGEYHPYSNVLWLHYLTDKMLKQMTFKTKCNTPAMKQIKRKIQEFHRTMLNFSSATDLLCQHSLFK
Sequence of Ribosomal protein S6 kinase alpha-6 (Homo sapiens) (Q9UK32 whole entry): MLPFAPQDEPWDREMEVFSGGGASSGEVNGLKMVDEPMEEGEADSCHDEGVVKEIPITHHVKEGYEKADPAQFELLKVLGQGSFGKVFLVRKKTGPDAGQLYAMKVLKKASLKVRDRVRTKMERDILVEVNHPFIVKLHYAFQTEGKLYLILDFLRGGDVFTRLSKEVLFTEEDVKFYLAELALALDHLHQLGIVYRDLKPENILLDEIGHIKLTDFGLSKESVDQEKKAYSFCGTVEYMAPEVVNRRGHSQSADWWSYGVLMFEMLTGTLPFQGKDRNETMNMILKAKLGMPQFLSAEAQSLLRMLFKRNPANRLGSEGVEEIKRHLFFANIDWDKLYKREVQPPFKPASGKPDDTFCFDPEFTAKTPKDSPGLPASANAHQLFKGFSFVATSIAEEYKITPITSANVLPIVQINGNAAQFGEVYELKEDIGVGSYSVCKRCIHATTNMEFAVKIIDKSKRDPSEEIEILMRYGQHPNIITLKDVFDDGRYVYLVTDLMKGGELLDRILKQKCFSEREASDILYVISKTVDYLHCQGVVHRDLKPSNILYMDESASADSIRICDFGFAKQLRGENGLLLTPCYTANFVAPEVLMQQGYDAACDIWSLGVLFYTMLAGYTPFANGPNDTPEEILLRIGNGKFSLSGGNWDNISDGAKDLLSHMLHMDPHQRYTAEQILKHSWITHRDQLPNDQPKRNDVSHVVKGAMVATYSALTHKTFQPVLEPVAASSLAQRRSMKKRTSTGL
Sequence of ALK tyrosine kinase receptor (Homo sapiens), Q9UM73 [C1156Y] (Q9UM73 whole entry C1156Y, looked up): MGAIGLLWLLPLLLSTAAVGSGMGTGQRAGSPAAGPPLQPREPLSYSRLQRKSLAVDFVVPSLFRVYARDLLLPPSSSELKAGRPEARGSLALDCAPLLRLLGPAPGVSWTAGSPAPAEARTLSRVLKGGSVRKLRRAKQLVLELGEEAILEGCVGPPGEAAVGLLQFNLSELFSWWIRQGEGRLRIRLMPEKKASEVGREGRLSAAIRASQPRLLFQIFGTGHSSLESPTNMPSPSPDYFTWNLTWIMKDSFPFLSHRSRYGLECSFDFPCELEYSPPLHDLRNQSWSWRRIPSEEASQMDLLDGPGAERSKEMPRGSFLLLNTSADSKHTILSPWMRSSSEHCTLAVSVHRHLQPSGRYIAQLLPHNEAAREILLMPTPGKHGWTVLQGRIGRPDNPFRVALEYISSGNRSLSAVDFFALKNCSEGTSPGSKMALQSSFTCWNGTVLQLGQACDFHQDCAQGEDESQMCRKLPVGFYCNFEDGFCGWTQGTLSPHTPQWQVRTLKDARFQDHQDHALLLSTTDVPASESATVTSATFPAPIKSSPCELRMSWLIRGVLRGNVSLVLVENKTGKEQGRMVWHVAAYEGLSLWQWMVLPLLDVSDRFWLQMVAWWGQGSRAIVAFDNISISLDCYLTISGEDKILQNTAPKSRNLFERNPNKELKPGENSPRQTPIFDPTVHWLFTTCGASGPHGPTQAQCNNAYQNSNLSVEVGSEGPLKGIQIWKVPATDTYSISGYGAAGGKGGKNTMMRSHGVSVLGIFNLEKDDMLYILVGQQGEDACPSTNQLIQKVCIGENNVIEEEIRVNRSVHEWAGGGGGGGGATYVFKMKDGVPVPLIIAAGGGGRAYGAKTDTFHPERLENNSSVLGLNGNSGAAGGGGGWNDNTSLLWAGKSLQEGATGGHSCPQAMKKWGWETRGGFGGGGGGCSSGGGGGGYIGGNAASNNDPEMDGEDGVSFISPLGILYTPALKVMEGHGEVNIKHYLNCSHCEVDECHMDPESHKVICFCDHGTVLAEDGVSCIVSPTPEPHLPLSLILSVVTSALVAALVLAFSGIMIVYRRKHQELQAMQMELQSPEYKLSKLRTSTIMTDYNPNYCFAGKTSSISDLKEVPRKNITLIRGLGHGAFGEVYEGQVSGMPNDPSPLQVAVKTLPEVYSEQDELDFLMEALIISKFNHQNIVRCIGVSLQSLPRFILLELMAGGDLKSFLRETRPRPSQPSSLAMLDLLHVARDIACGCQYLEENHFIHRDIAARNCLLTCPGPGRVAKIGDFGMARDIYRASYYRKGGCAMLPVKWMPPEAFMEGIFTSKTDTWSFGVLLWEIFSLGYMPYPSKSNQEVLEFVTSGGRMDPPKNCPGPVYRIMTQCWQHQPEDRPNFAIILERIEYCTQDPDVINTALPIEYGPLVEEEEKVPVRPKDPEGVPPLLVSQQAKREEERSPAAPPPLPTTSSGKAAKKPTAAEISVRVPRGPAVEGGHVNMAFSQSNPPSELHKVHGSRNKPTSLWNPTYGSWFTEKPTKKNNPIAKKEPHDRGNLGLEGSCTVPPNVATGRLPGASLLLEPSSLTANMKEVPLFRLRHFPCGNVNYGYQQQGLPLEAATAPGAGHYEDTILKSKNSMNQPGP
Sequence of Serine/threonine-protein kinase D2 (Homo sapiens) (Q9BZL6 whole entry): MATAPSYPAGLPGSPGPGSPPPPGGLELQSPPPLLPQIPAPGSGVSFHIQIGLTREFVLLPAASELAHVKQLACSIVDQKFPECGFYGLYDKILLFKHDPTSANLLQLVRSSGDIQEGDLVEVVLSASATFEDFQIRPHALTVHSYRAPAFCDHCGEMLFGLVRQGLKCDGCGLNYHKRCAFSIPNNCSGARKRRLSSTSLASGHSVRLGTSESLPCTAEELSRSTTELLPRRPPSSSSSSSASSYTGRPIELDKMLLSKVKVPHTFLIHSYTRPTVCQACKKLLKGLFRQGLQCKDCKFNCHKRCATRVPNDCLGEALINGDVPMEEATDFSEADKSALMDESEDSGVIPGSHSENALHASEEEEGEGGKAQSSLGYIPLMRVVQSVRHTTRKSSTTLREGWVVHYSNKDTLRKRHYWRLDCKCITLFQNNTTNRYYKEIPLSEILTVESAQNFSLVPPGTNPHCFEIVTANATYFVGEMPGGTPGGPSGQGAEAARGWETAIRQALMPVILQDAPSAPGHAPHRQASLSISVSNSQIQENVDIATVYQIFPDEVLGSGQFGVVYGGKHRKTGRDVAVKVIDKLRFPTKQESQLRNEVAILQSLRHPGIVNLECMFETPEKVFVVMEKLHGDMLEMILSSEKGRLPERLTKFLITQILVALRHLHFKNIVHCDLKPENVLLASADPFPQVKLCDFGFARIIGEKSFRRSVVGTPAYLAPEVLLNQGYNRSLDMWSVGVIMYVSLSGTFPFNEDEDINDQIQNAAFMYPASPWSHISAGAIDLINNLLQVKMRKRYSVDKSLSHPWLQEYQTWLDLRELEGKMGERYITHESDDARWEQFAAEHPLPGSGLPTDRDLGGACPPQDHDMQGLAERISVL
Sequence of Casein kinase II subunit alpha' (Homo sapiens) (P19784 whole entry, looked up): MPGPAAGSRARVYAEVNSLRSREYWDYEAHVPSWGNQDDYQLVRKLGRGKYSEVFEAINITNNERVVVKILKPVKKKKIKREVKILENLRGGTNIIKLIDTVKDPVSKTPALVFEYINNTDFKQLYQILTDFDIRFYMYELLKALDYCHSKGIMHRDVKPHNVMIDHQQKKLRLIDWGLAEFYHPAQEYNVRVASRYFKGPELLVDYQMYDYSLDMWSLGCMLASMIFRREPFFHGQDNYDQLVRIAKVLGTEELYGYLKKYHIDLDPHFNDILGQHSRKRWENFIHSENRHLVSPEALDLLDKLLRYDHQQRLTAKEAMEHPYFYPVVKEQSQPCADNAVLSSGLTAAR
Sequence of G protein-coupled receptor kinase 3 (Homo sapiens) (P35626 whole entry): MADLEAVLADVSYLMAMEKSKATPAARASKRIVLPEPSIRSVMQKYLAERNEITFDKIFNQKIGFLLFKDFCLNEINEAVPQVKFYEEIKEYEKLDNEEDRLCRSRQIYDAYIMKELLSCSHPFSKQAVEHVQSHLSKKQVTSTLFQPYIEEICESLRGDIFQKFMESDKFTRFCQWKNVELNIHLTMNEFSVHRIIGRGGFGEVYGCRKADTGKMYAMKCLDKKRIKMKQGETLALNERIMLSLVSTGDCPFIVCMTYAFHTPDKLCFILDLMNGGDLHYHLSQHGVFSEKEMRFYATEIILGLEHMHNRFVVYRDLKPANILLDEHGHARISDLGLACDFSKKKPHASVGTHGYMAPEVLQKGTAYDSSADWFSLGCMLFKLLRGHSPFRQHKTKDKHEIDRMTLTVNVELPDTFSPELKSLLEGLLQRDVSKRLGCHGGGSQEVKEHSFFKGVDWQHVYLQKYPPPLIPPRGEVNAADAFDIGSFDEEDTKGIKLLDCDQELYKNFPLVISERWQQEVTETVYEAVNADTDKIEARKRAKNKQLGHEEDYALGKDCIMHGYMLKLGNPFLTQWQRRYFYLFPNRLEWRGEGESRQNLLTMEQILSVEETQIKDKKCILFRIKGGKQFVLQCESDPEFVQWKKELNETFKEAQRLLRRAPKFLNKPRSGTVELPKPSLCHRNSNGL

Structure (SMILES): CC(C)CC(=O)N1CCc2nc(-c3ccc(Br)cc3)nc(N(C)Cc3ccccc3)c2C1 [THPP-1-NC]
- residual activity [1]: 100%
- residual activity [2]: 100%
- residual activity [3]: 60%
- residual activity [4]: 100%
- residual activity [5]: 100%
- inhibition [6]: 19.4%
- residual activity [7]: 100%
- residual activity [8]: 77%
- residual activity [9]: 100%
- residual activity [10]: 100%
- residual activity [11]: 100%
- residual activity [12]: 100%
- residual activity [13]: 100%
- residual activity [14]: 100%
- Ki [15]: > 54.6 µM (not active)
- residual activity [16]: 92%
- residual activity [17]: 100%
- residual activity [18]: 100%
- residual activity [19]: 100%
- residual activity [20]: 97%
- residual activity [21]: 100%
- inhibition [22]: 29.5%
- residual activity [23]: 100%
- residual activity [24]: 100%
- residual activity [25]: 100%
- residual activity [26]: 88%
- inhibition [27]: 22.6%
- residual activity [28]: 100%
- residual activity [29]: 100%
- residual activity [30]: 100%
- residual activity [31]: 100%
- residual activity [32]: 75%
- residual activity [33]: 100%
- residual activity [34]: 98%
- residual activity [35]: 100%
- residual activity [36]: 100%
- residual activity [37]: 92%
- residual activity [38]: 100%
- residual activity [39]: 100%
- residual activity [40]: 100%
- residual activity [41]: 100%
- residual activity [42]: 98%
- residual activity [43]: 88%
- residual activity [44]: 100%
- residual activity [45]: 100%

Structure (SMILES): COCCOc1nc(-c2ccc(Cl)nc2)nc2c1CN(C(=O)c1ncn3ccccc13)CC2 [THPP-1]
- residual activity [1]: 100%
- residual activity [2]: 100%
- residual activity [3]: 85%
- residual activity [4]: 100%
- residual activity [5]: 100%
- inhibition [6]: -3.46%
- residual activity [7]: 100%
- residual activity [8]: 96%
- residual activity [9]: 100%
- residual activity [10]: 100%
- residual activity [11]: 100%
- residual activity [12]: 100%
- residual activity [13]: 100%
- residual activity [14]: 100%
- Ki [15]: > 50 µM (not active)
- residual activity [16]: 100%
- residual activity [17]: 100%
- residual activity [18]: 93%
- residual activity [19]: 100%
- residual activity [20]: 94%
- residual activity [21]: 100%
- inhibition [22]: 16.8%
- residual activity [23]: 100%
- residual activity [24]: 100%
- residual activity [25]: 100%
- residual activity [26]: 89%
- inhibition [27]: 8.09%
- residual activity [28]: 100%
- residual activity [29]: 100%
- residual activity [30]: 100%
- residual activity [31]: 100%
- residual activity [32]: 68%
- residual activity [33]: 100%
- residual activity [34]: 75%
- residual activity [35]: 100%
- residual activity [36]: 100%
- residual activity [37]: 73%
- residual activity [38]: 100%
- residual activity [39]: 100%
- residual activity [40]: 100%
- residual activity [41]: 100%
- residual activity [42]: 93%
- residual activity [43]: 100%
- residual activity [44]: 100%
- residual activity [45]: 100%
